From US20250152580A1, “METHODS FOR TREATING IMMUNE DISEASES” (Ascentage Pharma (Suzhou) co., Ltd., priority 2022, published 2025) come the findings set out here.

“Also recorded” adds a separate entry of the source.

This assay has as its system TNBS induced inflammatory bowel disease (IBD) model. Kind of assay: TNBS induced inflammatory bowel disease (IBD) model in Balb/c mice. Format: in vivo. The conditions noted are these: for colon weight: vehicle 336.8±25.15 mg; for colon length: vehicle 6.26±0.16 cm; for pathological score (colon, H&E): vehicle 10.33±0.35. From the text: There are two kinds of IBD: Crohn's disease (CD) and ulcerative colitis (UC). TNBS administration results in a preclinical mouse model replicating clinical Crohn's disease.
Female Balb/c mice (8 weeks old) were obtained from Beijing Vital River Laboratory Animal Co. Ltd. Animals were housed and handled in a temperature-controlled environment with a 12-h light/12-h dark cycle. A total of 50 mice were assigned to 5 groups by randomization based on body weight.
On Day 0, the mice weighing 18-20 g were anesthetized with […] (Easycheck, M2910). The mice were further intra-rectally injected 100 μL 1.5% TNBS solution (final concentration 50% ethanol) in the vehicle group and other treatment groups. For the Sham group, the mice were intra-rectally injected with 50% ethanol at the same volume.
Mice in Group 1 and Group 2 were treated with vehicle for 8 days (po, qd, from day −1 to day 6). Mice in Group 3 were treated with 50 mg/kg Cpd. 4 for 8 days (preventive regimen, po, qd, from day −1 to day 6). Mice in Group 4 were treated with 50 mg/kg Cpd. 4 for 6 days (therapeutic regimen, po, qd, from day 1 to day 6). 50 mg/kg Mesalamine was used as positive control which was orally administered to mice in Group 5 for 8 days (preventive regimen, qd, from day −1 to day 6). The protocols and procedures involving the care and use of animals were approved by the Institutional Animal Care and Use Committee (IACUC) at WuxiApptec (Shanghai, China).
Clinical signs of IBD were assessed every day based on the score of disease activity index (DAI) which was evaluated from three parameters using a scoring system from 0 to 4: stool consistency (0, normal stool; 1, soft but still formed stool; 2, soft and not formed stool; 3, very soft and wet stool; 4, watery diarrhea), bleeding score (0, negative hemoccult; 1, weak positive hemoccult; 2, positive hemoccult; 3, blood trace in stool visible; 4, gross rectal bleeding) and body weight loss (0, no body weight loos; 1, 1-5% body weight loss; 2, 6-10% body weight loss; 3, 11-20% body weight loss; 4, >20% body weight loss).
At the end of induction with TNBS (day 7), the animals were euthanized, dissected and the entire colon was quickly removed and gently cleared of feces.
The entire colon was weighed, and the total length was measured. Colon weight gain and shortening is an indirect marker of inflammation. As expected, colon weight induced by TNBS increased to 336.8±25.15 mg. […] The TNBS-induced colon weight increasement were improved by Cpd. 4 treatment (202.4±3.95 mg for 50 mg/kg Cpd. 4 preventive therapy and 214.4±5.17 mg for 50 mg/kg Cpd. 4 therapeutic therapy) (FIG. 2).
At the end of induction with TNBS, the animals were euthanized, and blood was collected immediately by the heart punctures and used for whole blood cell analysis.
At the end of the study (day 7), the cell suspensions from sham control, model control and Cpd. 4 therapeutic treatment groups were obtained from mesenteric lymph nodes (MLN). Cells were stained with the following florescence-labelled antibodies: APC-Cy7-conjugated anti-mouse CD45, BV510-conjugated anti-mouse CD3e, AF700-conjugated anti-mouse CD8a, BUV395-conjugated anti-mouse CD4, BV421-conjugated anti-mouse CD25, FITC-conjugated anti-mouse Foxp3, BV650-conjugated anti-mouse IFN-γ, BV786-conjugated anti-mouse IL-17A, BB700-conjugated anti-mouse TNF-α, APC-conjugated anti-mouse B220, BV395-conjugated anti-mouse CD3e, BV605-conjugated anti-mouse CD11b, BB700-conjugated anti-mouse CD11c, AF488-conjugated anti-mouse MHCII, BV421-conjugated anti-mouse NK1.1, BV510-conjugated anti-mouse Ly6G, PE-Cy7-conjugated anti-mouse CD107a and PE-CF594-conjugated anti-mouse F4/80. All cells were primarily gated on single and live lymphocytes based on forward scatter (FCS), side scatter (SSC) and live/dead staining buffer. Samples were analyzed on a flow cytometer (BD LSRFortessa) to count the percentage of each subtype of lymphocytes. […]

The mark [1] stands for this setting: 50 mg/kg po qd preventive treatment, day 7.
Setting [2] is: 50 mg/kg po qd therapeutic treatment, day 7.
Setting [3] is: 50 mg/kg po qd, Cpd. 4 preventive and therapeutic, mesalamine day −1 to day 6, compared with Vehicle.
The mark [4] stands for this setting: Cpd. 4 50 mg/kg po qd, preventive and therapeutic, compared with Vehicle, 50 mg/kg.
The mark [5] stands for this setting: mesenteric lymph nodes, flow cytometry, day 7, 50 mg/kg therapeutic treatment, compared with vehicle.

The compound `O=C(NS(=O)(=O)c1ccc(NC[C@H]2COCCO2)c([N+](=O)[O-])c1)c1ccc(N2CCN(CC3=C(c4ccc(Cl)cc4)CC4(CCC4)CC3)CC2)cc1Oc1cnc2[nH]ccc2c1` [Cpd. 4, (S)-N-((4-(((1,4-dioxan-2-yl)methyl)amino)-3-nitrophenyl)sulfonyl)-2-((1H-pyrrolo[2,3-b]pyridin-5-yl)oxy)-4-(4-((6-(4-chlorophenyl)spiro[3.5]non-6-en-7-yl)methyl)piperazin-1-yl)benzamide] had a colon weight (50 mg/kg po qd preventive therapy (day −1 to day 6), day 7) of 202.4 ± 3.95 mg. Further, under setting [1], the colon length is listed as 7.81±0.2 cm and the “pathological score (colon, H&E)” value is reported as 2.70±0.80. This compound also yielded a colon weight (50 mg/kg po qd therapeutic therapy (day 1 to day 6), day 7) of 214.4 ± 5.17 mg. Moreover, under setting [2], the colon length turned out to be 7.39±0.12 cm and the “pathological score (colon, H&E)” value is on record as 5.00±1.15. Moreover, the “disease activity index (DAI), clinical score of IBD” value (50 mg/kg po qd, Cpd. 4 preventive (day −1 to day 6) and therapeutic (day 1 to day 6) regimens, mesalamine day −1 to day 6, compared with Vehicle) is “significantly reducing the clinical score; also recorded: significantly reduced DAI”. Besides, under setting [3], the “colon length (in words)” value was “increased colon length” and the “colon weight (in words)” value is given as “significantly decreased colon weight”. Further, the body weight loss result (Cpd. 4 50 mg/kg po qd, preventive and therapeutic regimens, compared with Vehicle, 50 mg/kg) is listed as “improving body weight loss; also recorded: improved body weight loss”. Besides, under setting [4], the “cell number of monocytes in peripheral blood” value is recorded as “significantly reduced; also recorded: significantly decreased” and the “cell number of neutrophils in peripheral blood” value is “significantly reduced; also recorded: significantly decreased”. For the same compound, for the setting “Cpd. 4 50 mg/kg po qd, compared with Vehicle”, the “anemia (red blood cells and hemoglobin in peripheral blood)” value is recorded as “improved anemia”. For the same compound, the “fibrosis score (Masson's Trichrome staining of colon)” value (Cpd. 4 50 mg/kg therapeutic treatment, compared with Vehicle) is “significantly reduced”. In addition, where the note is “Cpd. 4 preventive and therapeutic, compared with Vehicle”, the “pathological score (in words)” value is “significantly decreased”. For the same compound, under setting [5], the “percentage of IFN-γ secreting CD4+ T cells (Th1 cells)” value was “significantly reduced”, the “percentage of IL-17A secreting CD4+ T cells (Th17 cells)” value is recorded as “significantly reduced”, the “percentage of NK cells (CD45+CD3−B220−NK1.1+)” value was “significantly reduced” and the “percentage of activated NK cells (CD45+CD3−B220−NK1.1+CD107a+)” value was “significantly reduced”. Further, under setting [5], the “percentage of macrophages (CD45+CD3−B220−CD11b+F4/80+)” value is “significantly reduced” and the “percentage of neutrophils (CD45+CD3−B220−CD11B+LY6G+)” value is given as “significantly reduced”.
